Legend:
LNCaP cells = experiment: Cell proliferation assay (CellTiter-Glo, 5-day exposure), LNCaP; type: cell-based, human
Procedure: Inhibition of cell proliferation of Thorium-227 labeled PMSA SMOL ligands was tested different prostate cancer cell lines, namely 22Rv1, VCaP, C4-2 (all from ATCC, Manassas, Va., USA) and LNCaP (DMSZ, Braunschweig). Cells were seeded using the following conditions in 384 well plates (Corning) in 30 μl of growth media at 4000 cells/well for VCaP cells and 1000 cells/well for 22Rv1, C4-2 and LNCaP cells.
Cells were cultivated an incubator at 37° C. and 5% C02 over night. On the following days cells were treated in triplicates with serial dilutions of PSMA-SMOLs labeled with Th-227 at a specific activity of 375 kBq/nmol (RCP>70% as assessed by iTLC analysis; compounds where RCP was between 50-70% in individual experiments are marked with an * in the table) using a D300e Digital Dispenser (Tecan). In sister plates cell viability at treatment start (d=0) was determined using CellTiter-Glo® assay (CTG, Promega, Madison, Wis., USA), by adding 30 μl per well CTG solution, incubation for 10 min and reading of Luminescence in a PheraStarFSX instrument (BMG Labtech). After a 5-day exposure in the presenced of test compounds, cell viability of treated or untreated control cells was determined again using CellTiter-Glo® assay (Promega, Madison, Wis., USA). […] The DRC software is a Biobook Spreadsheet that was developed by Bayer AG and Bayer Business Services on the IDBS E-Workbook Suite platform (IDBS: ID Business Solutions Ltd., Guildford, UK).

[1] = target: T1, PSMA-expressing LNCaP cells (Homo sapiens, UniProt Q04609); experiment: Internalization assay (membrane bound and internalized Th-227); type: cell-based; settings: for Internalized in LNCaP fmol/10^6 cells 30 min / Membrane bound in LNCaP fmol/10^6 cells 30 min / Internalized in LNCaP fmol/10^6 cells 2 h / Membrane bound in LNCaP fmol/10^6 cells 2 h: 10 nM radiolabeled compound, Th-227 at 375 kBq/nmol, triplicates; for Internalized in LNCaP fmol/10^6 cells 30 min / Membrane bound in LNCaP fmol/10^6 cells 30 min: 30 min incubation; for Internalized in LNCaP fmol/10^6 cells 2 h / Membrane bound in LNCaP fmol/10^6 cells 2 h: 2 h incubation
T1 construct: PSMA-expressing LNCaP cells; endogenous in cells; host or cells: LNCaP
T1 sequence (Q04609 whole entry): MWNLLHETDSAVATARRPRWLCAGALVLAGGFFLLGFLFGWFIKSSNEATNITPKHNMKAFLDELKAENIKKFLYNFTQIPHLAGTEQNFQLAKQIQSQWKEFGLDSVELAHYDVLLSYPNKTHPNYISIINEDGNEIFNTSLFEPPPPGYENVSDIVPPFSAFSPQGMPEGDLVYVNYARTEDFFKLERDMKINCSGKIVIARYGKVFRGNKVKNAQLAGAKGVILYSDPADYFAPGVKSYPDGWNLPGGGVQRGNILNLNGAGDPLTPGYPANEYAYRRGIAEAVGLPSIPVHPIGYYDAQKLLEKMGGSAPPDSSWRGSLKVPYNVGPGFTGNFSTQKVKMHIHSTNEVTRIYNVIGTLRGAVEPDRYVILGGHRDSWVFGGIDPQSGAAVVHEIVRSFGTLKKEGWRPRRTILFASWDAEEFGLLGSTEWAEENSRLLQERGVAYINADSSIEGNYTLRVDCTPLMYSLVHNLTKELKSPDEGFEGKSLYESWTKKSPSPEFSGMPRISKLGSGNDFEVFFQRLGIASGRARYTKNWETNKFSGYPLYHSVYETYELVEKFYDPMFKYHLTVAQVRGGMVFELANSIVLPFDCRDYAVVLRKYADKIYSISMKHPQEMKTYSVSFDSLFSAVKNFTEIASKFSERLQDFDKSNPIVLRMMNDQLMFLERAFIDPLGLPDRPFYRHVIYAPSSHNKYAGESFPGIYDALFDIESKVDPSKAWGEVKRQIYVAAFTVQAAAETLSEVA
Procedure: For internalization assays 24 well plates (#3526, Corning) were coated with 200 μl Poly-L-Lysine (0.1 mg/ml, #3438-100-01, Fa. Cultrex) per well for 2 h at 37° C. […] Cells were incubated at 37° C. and 5% CO2 over night. On the following day 400 μl of the media were removed and a total of 200 μl growth medium added supplemented with PSMA-SMOLs labeled with Th-227 at 375 kBq/nmol in triplicates. Radiochemical purity of the labeling was analyzed by instant thin layer chromatography and found to be above 70% for all compounds used. The final concentration of radiolabeled SMOLs was in the test wells was 10 nM. Cells were incubated for 30 min or 2 h. After the incubation time supernatants were taken off and cells washed with PBS. Thereafter cells were washed twice with 0.2 ml 50 mM Glycine-HCl buffer (#55097, Sigma Aldrich) and once with PBS and the washing solutions combined in counting vials (#TK75-018, Fa. Corning) and subjected to gamma counting (1470 Wizard automatic gamma counter, Wallac). The resulting counts were attributed to membrane bound radioactivity. Cells were then lysed with 500 μl 0.3N NaOH (#181691.1211, Fa. PanReac AppliChem ITW Reagents) followed by another wash with 500 μl PBS. The NaOH lysate as well as the final wash were combined in vials and subjected to gamma counting as described above. Measured radioactivity was attributed to internalized fraction. Results were calculated as fmol of Th-227 per/10^cells in the membrane bound and internalized fractions from triplicate values.

[2] = Biodistribution study in LNCaP tumor-bearing mice (Th227 counted in organs); type: in vivo, SCID mice; settings: 500 kBq/kg; for Th-227 in Blood / Th-227 in Femur bone / Th-227 in Kidneys / Th-227 in Liver / Th-227 in Spleen / Th-227 in Tumor / Th-227 in salivary glands: study b3004
Outline: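 SCID mice bearing testosterone pellets and subcutaneous LNCaP flank tumors (~50 mm^2) received a single intravenous dose of the radioactive compound. At set time points, n=3 animals were sacrificed, and organs were removed, weighed and counted for Th227 on a Germanium detector.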

[3] = system: LNCaP human prostate cancer cells; experiment: LNCaP xenograft efficacy study (T/C tumor area); type: in vivo, SCID mice; settings: Example II; 750 kBq/kg weekly for 5 weeks; day 120
Outline: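 SCID mice with testosterone pellet bearing s.c. flank LNCaP xenografts (5×10^6 cells in Matrigel) were treated i.v. with a defined radioactive dose once tumors reached 35-50 mm^2 (n=10/group). Tumor area (caliper, longest diameter × perpendicular) measured 2-3× weekly; T/C ratio calculated from tumor areas when vehicle group closed.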

22Rv1 cells = experiment: Cell proliferation assay (CellTiter-Glo, 5-day exposure), 22Rv1; type: cell-based; settings: 22Rv1, 1000 cells/well, Th-227 labelled at 375 kBq/nmol, mean of 1 to 6 experiments
Outline: (§1)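 Prostate cancer cells (VCaP 4000/well; 22Rv1, C4-2, LNCaP 1000/well), Th-227-labelled PSMA ligands, 5-day exposure; viability by CTG at start and end.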

C4-2 cells = experiment: Cell proliferation assay (CellTiter-Glo, 5-day exposure), C4-2; type: cell-based; settings: C4-2, 1000 cells/well, Th-227 labelled at 375 kBq/nmol, mean of 1 to 6 experiments
Outline: as §1

VCaP cells = experiment: Cell proliferation assay (CellTiter-Glo, 5-day exposure), VCaP; type: cell-based; settings: 4000 cells/well, Th-227 labelled at 375 kBq/nmol, mean of 1 to 6 experiments
Outline: as §1

[4] = comparison of % injected dose per gram tissue

In the case of CC1=CC2=C3[O][227Th-5]45678([O]C9=C(C=C(C)N(CC(=O)O)C9=[O+]4)C(=O)NCCN(CCCN(CCNC(=O)C4=C([O]5)C(=[O+]6)N(CC(=O)O)C(C)=C4)CCNC(=O)C4=C([OH+]7)C(=[O+]8)N(CC(=O)NC[C@H]5CC[C@H](C(=O)N[C@@H](Cc6ccc7ccccc7c6)C(=O)NCCCC[C@H](NC(=O)N[C@@H](CCC(=O)O)C(=O)O)C(=O)O)CC5)C(C)=C4)CCNC2=O)[O+]=C3N1CC(=O)O [1-C monomer-227Th], the “antiproliferative activity on LnCap cells (in words)” value (LNCaP cells; compared to 1-PEG-227Th and 46-E 227Th) is reported as “superior antiproliferative activity”, the “Internalized in LNCaP fmol/10^6 cells 30 min” value [1] is reported as 84 fmol/10^6 cells and the “Membrane bound in LNCaP fmol/10^6 cells 30 min” value [1] is reported as 105 fmol/10^6 cells. For the same compound, the “Internalized in LNCaP fmol/10^6 cells 2 h” value [1] was 291 fmol/10^6 cells, the “Membrane bound in LNCaP fmol/10^6 cells 2 h” value [1] was 260 fmol/10^6 cells and the “intracellular radioactivity on PSMA-expressing LNCaP cells (in words)” value ([1]; after 30 min and 2 h, compared to 1-B-227Th bearing a DOTA chelator) was “increased intracellular radioactivity”. For the same compound, the “Accumulation in the tumor (in words)” value [2, 4] was “much higher accumulation in the tumor”, the “Background in blood, liver and spleen (in words)” value [2, 4] was “lower background compared to 1-F-227Th” and the “Th-227 in Blood” value ([2]; 1 h) was 0.63 % ID Th-227/g organ. The “Th-227 in Femur bone” value ([2]; 1 h) was 0.96 % ID Th-227/g organ, the “Th-227 in Kidneys” value ([2]; 1 h) was 119.59 % ID Th-227/g organ and the “Th-227 in Liver” value ([2]; 1 h) was 0.69 % ID Th-227/g organ. The “Th-227 in Spleen” value ([2]; 1 h) was 4.69 % ID Th-227/g organ, the “Th-227 in Tumor” value ([2]; 1 h) was 31.73 % ID Th-227/g organ and the “Th-227 in salivary glands” value ([2]; 1 h) was 9.62 % ID Th-227/g organ. For the same compound, the “Th-227 in Blood” value ([2]; 24 h) was 0.03 % ID Th-227/g organ, the “Th-227 in Femur bone” value ([2]; 24 h) was 1.08 % ID Th-227/g organ and the “Th-227 in Kidneys” value ([2]; 24 h) was 72.59 % ID Th-227/g organ. The “Th-227 in Liver” value ([2]; 24 h) was 0.35 % ID Th-227/g organ, the “Th-227 in Spleen” value ([2]; 24 h) was 1.79 % ID Th-227/g organ and the “Th-227 in Tumor” value ([2]; 24 h) was 16.36 % ID Th-227/g organ. The “Th-227 in salivary glands” value ([2]; 24 h) was 1.41 % ID Th-227/g organ, the “Th-227 in Blood” value ([2]; 72 h) was 0.01 % ID Th-227/g organ and the “Th-227 in Femur bone” value ([2]; 72 h) was 1.12 % ID Th-227/g organ. For the same compound, the “Th-227 in Kidneys” value ([2]; 72 h) was 24.80 % ID Th-227/g organ, the “Th-227 in Liver” value ([2]; 72 h) was 0.36 % ID Th-227/g organ and the “Th-227 in Spleen” value ([2]; 72 h) was 0.76 % ID Th-227/g organ. The “Th-227 in Tumor” value ([2]; 72 h) was 9.02 % ID Th-227/g organ, the “Th-227 in salivary glands” value ([2]; 72 h) was 1.13 % ID Th-227/g organ and the “Th-227 in Blood” value ([2]; 168 h) was 0.00 % ID Th-227/g organ. For the same compound, the “Th-227 in Femur bone” value ([2]; 168 h) was 1.28 % ID Th-227/g organ, the “Th-227 in Kidneys” value ([2]; 168 h) was 12.66. % ID Th-227/g organ and the “Th-227 in Liver” value ([2]; 168 h) was 0.33 % ID Th-227/g organ. For the same compound, the “Th-227 in Spleen” value ([2]; 168 h) was 0.78 % ID Th-227/g organ, the “Th-227 in Tumor” value ([2]; 168 h) was 6.20 % ID Th-227/g organ and the “Th-227 in salivary glands” value ([2]; 168 h) was 1.23 % ID Th-227/g organ. For the same compound, the “Th-227 in Blood” value ([2]; 336 h) was 0.00 % ID Th-227/g organ, the “Th-227 in Femur bone” value ([2]; 336 h) was 1.13 % ID Th-227/g organ and the “Th-227 in Kidneys” value ([2]; 336 h) was 3.41 % ID Th-227/g organ. The “Th-227 in Liver” value ([2]; 336 h) was 0.31 % ID Th-227/g organ, the “Th-227 in Spleen” value ([2]; 336 h) was 0.70 % ID Th-227/g organ and the “Th-227 in Tumor” value ([2]; 336 h) was 2.78 % ID Th-227/g organ. For the same compound, the “Th-227 in salivary glands” value ([2]; 336 h) was 1.29 % ID Th-227/g organ and the Tumor response [3] was “full response”.

With Cc1cc(C(=O)NCCN(CCCN(CCNC(=O)c2cc(C)n(CC(=O)NCc3ccc(C(=O)N[C@@H](Cc4ccc5ccccc5n4)C(=O)NCCCC[C@H](NC(=O)N[C@@H](CCC(=O)O)C(=O)O)C(=O)O)nc3)c(=O)c2[O-])CCNC(=O)c2cc(C)n(CC(=O)NCc3ccc(C(=O)N[C@@H](Cc4ccc5ccccc5n4)C(=O)NCCCC[C@H](NC(=O)N[C@@H](CCC(=O)O)C(=O)O)C(=O)O)nc3)c(=O)c2[O-])CCNC(=O)c2cc(C)n(CC(=O)NCc3ccc(C(=O)N[C@@H](Cc4ccc5ccccc5n4)C(=O)NCCCC[C@H](NC(=O)N[C@@H](CCC(=O)O)C(=O)O)C(=O)O)nc3)c(=O)c2[O-])c([O-])c(=O)n1CC(=O)NCc1ccc(C(=O)N[C@@H](Cc2ccc3ccccc3n2)C(=O)NCCCC[C@H](NC(=O)N[C@@H](CCC(=O)O)C(=O)O)C(=O)O)nc1.[227Th+4] [34-C tetramer-227Th] the “Proliferation assay on cancer cell lines by TTCs Default Pivot #3 IC50 [kBq/mL] 22Rv1 1000cells 375kBq/nmol (mean)” value (22Rv1 cells) was 1.34 kBq/mL, the “Proliferation assay on cancer cell lines by TTCs Default Pivot #3 IC50 [kBq/mL] C4-2 1000cells 375kBq/nmol (mean)” value (C4-2 cells) was 1.55 kBq/mL and the “Proliferation assay on cancer cell lines by TTCs Default Pivot #3 IC50 [kBq/mL] LnCap 1000cells 375kBq/nmol (mean)” value (LNCaP cells; LNCaP, 1000 cells/well, Th-227 labelled at 375 kBq/nmol, 5-day exposure, mean of 1 to 6 experiments) was 0.03 kBq/mL. For the same compound, the “Proliferation assay on cancer cell lines by TTCs Default Pivot #3 IC50 [kBq/mL] VCap 4000cells 375kBq/nmol (mean)” value (VCaP cells) was 1.96 kBq/mL, the “Internalized in LNCaP fmol/10^6 cells 30 min” value [1] was 117 fmol/10^6 cells and the “Membrane bound in LNCaP fmol/10^6 cells 30 min” value [1] was 82 fmol/10^6 cells. The “Internalized in LNCaP fmol/10^6 cells 2 h” value [1] was 315 fmol/10^6 cells and the “Membrane bound in LNCaP fmol/10^6 cells 2 h” value [1] was 183 fmol/10^6 cells.

— patent publication US20230072421A1, “TARGETED RADIOPHARMACEUTICALS FOR THE DIAGNOSIS AND TREATMENT OF PROSTATE CANCER” (Bayer AS, priority 2019, published 2023)
